Reference: ChEMBL document CHEMBL1201862, “PubChem BioAssay data set” (2004)
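Dose response: 5 concentrations. Exposure: 48 h. Format: 96-well plates. Endpoint: linear interpolation; highest concentration if not reached. GI50 is the concentration that inhibits growth by half.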 Activity calls are given as the source filed them. Cut-off read from the data, not from the text of the source: active = GI50 up to about 1.1 µM and inactive = higher.

How the values were obtained:
Assay in all cases: NCI anticancer screen, dose series, 48 h
DMS-114 = system: DMS-114
EKVX = system: EKVX
HOP-62 = system: HOP-62
IGROV-1 = system: IGROV-1
M19-MEL = system: M19-MEL
NCI-H226 = system: NCI-H226
NCI-H460 = system: NCI-H460
OVCAR-8 = system: OVCAR-8
SK-MEL-28 = system: SK-MEL-28
SNB-75 = system: SNB-75
SW-620 = system: SW-620
UACC-62 = system: UACC-62
UACC-257 = system: UACC-257

| Compound | GI50 (DMS-114) | GI50 (EKVX) | GI50 (HOP-62) | GI50 (IGROV-1) | GI50 (M19-MEL) | GI50 (NCI-H226) | GI50 (NCI-H460) | GI50 (OVCAR-8) | GI50 (SK-MEL-28) | GI50 (SNB-75) | GI50 (SW-620) | GI50 (UACC-62) | GI50 (UACC-257) |
| --- | --- | --- | --- | --- | --- | --- | --- | --- | --- | --- | --- | --- | --- |
| CN(CCN(C)C(=O)CCn1ccc(=O)[nH]c1=O)C(=O)CCn1ccc(=O)[nH]c1=O | > 100 µM (inactive) | > 100 µM (inactive) | > 100 µM (inactive) | > 100 µM (inactive) | > 100 µM (inactive) | > 100 µM (inactive) | > 100 µM (inactive) | > 100 µM (inactive) | > 100 µM (inactive) | 22.4 µM (inactive) | > 100 µM (inactive) | > 100 µM (inactive) |  |
| O=C(/C=N/O)Nc1ccc(Cl)c(I)c1 | 16.6 µM (inactive) | 10.8 µM (inactive) | 23.1 µM (inactive) | 8.61 µM (inactive) | 22.4 µM (inactive) | 0.0445 µM (active) | 21.6 µM (inactive) | 28.9 µM (inactive) | 27.7 µM (inactive) |  | 34.4 µM (inactive) | 10.2 µM (inactive) | 28.6 µM (inactive) |
| COC(=O)C1C2C=CC(C2)N1[C@@H](C)c1ccccc1 (some centres not stated) |  | > 100 µM (inactive) | > 100 µM (inactive) | > 100 µM (inactive) | > 100 µM (inactive) |  | > 100 µM (inactive) | > 100 µM (inactive) | > 100 µM (inactive) | > 100 µM (inactive) | > 100 µM (inactive) | > 100 µM (inactive) | > 100 µM (inactive) |
| O=C1OC(c2ccccc2)=N/C1=C/NC(Cc1ccc(O)cc1)C(=O)O (configuration not stated) | > 100 µM (inactive) | > 100 µM (inactive) | > 100 µM (inactive) |  |  | > 100 µM (inactive) | > 100 µM (inactive) | > 100 µM (inactive) | > 100 µM (inactive) | > 100 µM (inactive) | > 100 µM (inactive) |  | 73.5 µM (inactive) |
| Fc1ccc(F)c(C2SCc3nc4ccccc4n32)c1 (configuration not stated) | 23.5 µM (inactive) | 57.9 µM (inactive) | > 100 µM (inactive) | > 100 µM (inactive) | 48.2 µM (inactive) | > 100 µM (inactive) | 83 µM (inactive) | > 100 µM (inactive) |  | > 100 µM (inactive) | > 100 µM (inactive) | 91.6 µM (inactive) | 41.4 µM (inactive) |
| NNc1cnn(-c2ccccc2)c(=O)c1Cl | > 100 µM (inactive) |  | > 100 µM (inactive) | > 100 µM (inactive) | > 100 µM (inactive) | > 100 µM (inactive) | > 100 µM (inactive) | > 100 µM (inactive) | > 100 µM (inactive) | > 100 µM (inactive) | > 100 µM (inactive) | > 100 µM (inactive) | > 100 µM (inactive) |
| Cc1nn(C(=O)CC(=O)Nc2ccccc2Cl)c(C)c1/N=N/c1ccccc1Cl | > 100 µM (inactive) | > 100 µM (inactive) | > 100 µM (inactive) | > 100 µM (inactive) | > 100 µM (inactive) |  | > 100 µM (inactive) | > 100 µM (inactive) | > 100 µM (inactive) | 82 µM (inactive) | > 100 µM (inactive) | > 100 µM (inactive) | > 100 µM (inactive) |
| c1ccc2c(c1)oc1ccc3nsnc3c12 | > 100 µM (inactive) | 31.3 µM (inactive) |  | > 100 µM (inactive) | > 100 µM (inactive) | 51.6 µM (inactive) | > 10 µM (inactive) |  | > 100 µM (inactive) | 53.3 µM (inactive) | > 100 µM (inactive) | > 100 µM (inactive) | > 100 µM (inactive) |
| O=C(O)C(Cc1ccccc1)N1C(=O)N/C(=C\c2ccc(F)cc2)C1=O (configuration not stated) |  | > 100 µM (inactive) | > 100 µM (inactive) | > 100 µM (inactive) | > 100 µM (inactive) | > 100 µM (inactive) | > 100 µM (inactive) | > 100 µM (inactive) |  | > 100 µM (inactive) | > 100 µM (inactive) | 36.7 µM (inactive) | > 100 µM (inactive) |
| CCO/N=C(/N)c1ncn(Cc2ccccc2)c1NCC(OCC)OCC | > 100 µM (inactive) | > 100 µM (inactive) | > 100 µM (inactive) | > 100 µM (inactive) | > 100 µM (inactive) | > 100 µM (inactive) | > 100 µM (inactive) | > 100 µM (inactive) |  | > 100 µM (inactive) | > 100 µM (inactive) | > 100 µM (inactive) | > 100 µM (inactive) |
| N#CCCN(CCC#N)C(=O)c1cccc(C(=O)N(CCC#N)CCC#N)c1 | > 100 µM (inactive) | > 46.2 µM (inactive) | > 100 µM (inactive) | > 100 µM (inactive) | > 100 µM (inactive) |  | > 47.5 µM (inactive) | > 50 µM (inactive) | 7.45 µM (inactive) | > 44.6 µM (inactive) | 13.4 µM (inactive) | > 37.3 µM (inactive) | > 100 µM (inactive) |
